Experimental data as given in a melting point compilation (Tetko et al.; mined from patent text by program, amines drawn as free bases though some values may be those of a salt).

| Structure (SMILES) | melting point [°C] |
| --- | --- |
| O=C1N=C(N2CCOCC2)SC1=Cc1ccccc1-c1ccc(O)c(C23CC4CC(CC(C4)C2)C3)c1 | 321 to 324 |
| Cc1cc2c(cc1C)C1(CO2)C(=O)Nc2ccccc21 (stereo not drawn) | 206 to 207 |
| CC1(C)C(=O)Nc2cc3[nH]c(C4CCCCC4)nc3cc21 | 315 to 318 |
| CCOc1ccc([N+](=O)[O-])c(F)c1 | 48 |
| COc1ccc(C(O)(CC#N)c2ccc(OC)cc2)cc1 | 102 |
| O[C@@H](COc1cccc(-c2noc3ccsc23)c1)CN1CCN(c2ccccc2C(F)(F)F)CC1 | 77 to 79 |
| O=C(CBr)OCN1C(=O)NC(c2ccccc2)(c2ccccc2)C1=O | 179 to 183 |
| O=C1c2ccccc2C(O)(c2ccccc2)N1CC(c1ccccc1)c1ccccc1 (stereo not drawn) | 230 |
| CCC1CN(Cc2c(C)cc(C)cc2C)CCN1 (stereo not drawn) | 111 to 114 |
| Cc1cc(C2OC(C)(C)N=C2c2ccccc2)cc(C)c1N(C)C (stereo not drawn) | 91 to 92 |
| Cc1cc(C#N)cc(C(=O)NC(C)C)c1NC(=O)c1cc(Br)nn1-c1ccccc1Cl | 145 to 149 |
| Cc1nn(-c2ccccn2)c2nc3ccccc3c(N)c12 | 210 to 213 |
| Cc1cc(=S)cc(C)n1CCN | 162 to 164 |
| O=C(NCCO)c1cc2c(Oc3ccc(Cl)cc3)cnc(Cl)c2s1 | 129 to 132 |
| COCc1ccc(-c2ccc3nnn(Cc4ccc5ncccc5c4)c3n2)cc1F | 200 to 201 |
| CNC(=O)C(C)Oc1ncn(-c2cccc(C(F)(F)F)c2)n1 (stereo not drawn) | 137 to 139 |
| CC(=O)OC1CSC(Oc2cccc(-c3cc(Cl)ccn3)c2)C(OC(C)=O)C1OC(C)=O (stereo not drawn) | 152 |
| CCOC(=O)c1ccc(OCCCC2CCN(c3ccc(-c4ccc(F)cc4)nn3)CC2)cc1 | 160 |
| COC(=O)Nc1nc(C(=O)C(=O)OC)ns1 | 112 to 117 |
| CC(C)=NOCOc1cc(-n2c(=O)cc(C(F)(F)F)n(C)c2=O)c(F)cc1Br | 121 |
| CCCCCCCCNC(=O)Nc1ccc(Nc2ccc(N(CC)CCNS(C)(=O)=O)cc2C)c2ccccc12 | 132 to 133 |
| CN(CC(=O)C(Cc1ccccc1)NC(=O)c1ccccc1)C(=O)OC(Cc1ccccc1)C(=O)O (stereo not drawn) | 52 to 60 |
| CN(C)S(=O)(=O)c1cc(-n2c(=O)cc(C(F)(F)F)n(C)c2=O)ccc1Cl | 194 to 196 |
| Nc1nc(OCCc2ccccc2Cl)nc2c1ncn2C1OC(CO)C(O)C1O (stereo not drawn) | 158 to 161 |

| Structure (SMILES) | melting point [°C] |
| --- | --- |
| CCN(CC)CCCCC(=O)c1ccc2c(c1)C(=O)c1cc(C(=O)CCCCN(CC)CC)ccc1-2 | 108 to 110 |
| CCCc1nc(C(O)C(C)(C)C)c(C(N)=O)n1Cc1ccc(-c2ccccc2C(=O)O)cc1 (stereo not drawn) | > 160 |
| O=S(=O)(c1cccc(-c2cc(-c3nc(-c4ccc(C(F)(F)F)cc4)cc(C(F)(F)F)n3)ccn2)c1)N(CCO)CCO | 186 |
| CC(C)(O)COc1ccc(CCCO)c(Oc2ncc(C(F)(F)F)cc2Cl)c1 | 81.2 to 82 |
| CCN1C(=O)C(C)(C)C(=O)N(C)c2cc(CN(CCn3ccc4oc(C)cc4c3=O)Cc3ccccc3C=O)ccc21 | 157 to 158 |
| CCOC(=O)Nc1cccc2c1CN(C)CC2c1ccccc1 (stereo not drawn) | 174 |
| O=C(Cc1c(-c2ccccc2)c2cc(CN3CCOCC3)c(Cl)cc2oc1=O)Nc1ccc(Cl)cc1C(F)(F)F | 205 to 207 |
| O=C(c1nc(Cl)c(Cl)[nH]1)N1CCOCC1 | 215 |
| CCOC(=O)C(=O)Nc1c([N+](=O)[O-])ccc2c1CCCC2 | 121 to 122 |
| COc1ccc(C(=O)CCCCCl)cc1S(=O)(=O)NC(C)C | 122 to 124 |
| CC(C)c1cc(OCCO)cc2c1C(=O)N(COc1nc3ccccn3c(=O)c1Cl)S2(=O)=O | 214 to 216 |
| CN1CCC(N2CC=CC3=C2C(O)c2ccc(Cl)cc2SC3)CC1 (stereo not drawn) | 158 to 160 |
| CN(CCO)c1cc(Cl)nc(SCC(=O)O)n1 | 188 to 190 |
| COc1ccc(C(NC(C)c2cc(F)cc(F)c2)c2cc(N)ccc2OC)cc1 (stereo not drawn) | 105 to 106 |
| CCOC(=O)c1[nH]cc2c1NC1=C(C(=O)CCC1)C2c1ccc(Sc2nc3c(F)c(F)c(F)cc3[nH]2)o1 (stereo not drawn) | 186 |
| O=c1c2cc3ccccc3cc2oc2cc(OCC3CS3)cc(O)c12 (stereo not drawn) | 189 to 190 |
| Cc1c(-c2cccnc2)n(CCOc2ccc(C(=O)O)cc2)c2ccccc12 | 190 to 193 |
| COc1ccc(C(=O)Nc2ccccc2)cc1Nc1cc(Cl)cc(Cl)c1 | 207 to 208 |
| N#Cc1cc(NC(=O)c2cc3ccccc3s2)ccc1OC1CCN(Cc2ccccc2)CC1 | 206 |
| CC(C)(C)OC(=O)C(Cc1ccccc1)NC(=O)c1ccc2c(Cl)cnc(Cl)c2c1 (racemic) | 156 to 157 |
| COC1=C(OC)C(=O)C(CCCCCCCCCCCCCCCCCCCCO)=C(C)C1=O | 85 |
| COC(=O)C[C@H](O)C[C@H](O)CCc1c(-c2ccc(F)cc2)c(-c2ccccc2)c(C(=O)NCc2ccc(F)cc2)n1C(C)C | 49 to 50 |
| CC(C)C(=O)C(=CN(C)C)c1ccc(Cl)cc1 | 95 |
| CCCCOC(=O)NCC(=O)NCC1C2CCC(O2)C1CC=CCCCC(=O)O (stereo not drawn) | 104 to 106 |
